Molecular target: T1, p53 Y220C (Homo sapiens, UniProt P04637, Y220C)
T1 construct: The recombinant protein was a truncation mutant containing only amino acids 94-312 of p53; made in house; host or cells: E. coli
Test: In vitro DNA binding activity assay (HTRF / TR-FRET): stabilization of p53 Y220C and increase of its DNA binding activity
Type: biochemical
Details: recombinant His-tagged p53 Y220C DNA binding domain (aa 94-312), biotin-labeled consensus DNA, incubated at 27° C. or 29° C. for 60 min
In short: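 Test compounds, diluted 3-fold in DMSO from 4.5 mM stocks, were incubated with bacterially expressed His-tagged p53 Y220C at room temperature for 15 min, and after a further step for 20 min. DNA binding was detected by time-resolved FRET between APC and europium labels. SC150 marks the concentration increasing binding by 50%.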

T1 sequence (P04637 94-312, change not shown): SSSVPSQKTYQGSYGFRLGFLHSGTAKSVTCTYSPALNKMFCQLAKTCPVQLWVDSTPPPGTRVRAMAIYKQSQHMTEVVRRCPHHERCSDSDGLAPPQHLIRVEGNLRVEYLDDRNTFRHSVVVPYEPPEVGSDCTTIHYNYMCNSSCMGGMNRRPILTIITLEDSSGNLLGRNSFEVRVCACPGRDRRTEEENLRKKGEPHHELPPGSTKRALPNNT

SC150 (concentration of the compound required to increase the DNA binding activity by 50%), + (+ = 0 μM ≤ SC150 < 0.05 μM):
COCCN(C)S(=O)(=O)c1ccc(NCC#Cc2cc3c(NC4CCS(=O)(=O)CC4)cccc3n2CC(F)(F)F)c(OC)c1 [Compound 1046A, 4-[(3-{4-[(1,1-dioxo-1λ^6-thian-4-yl)amino]-1-(2,2,2-trifluoroethyl)-1H-indol-2-yl}prop-2-yn-1-yl)amino]-3-methoxy-N-(2-methoxyethyl)-N-methylbenzene-1-sulfonamide]
COc1cc(S(=O)(=O)N2CC3(COC3)C2)ccc1NCC#Cc1cc2c(NC3CCS(=O)(=O)CC3)cccc2n1CC(F)(F)F [Compound 1047A, 4-[(2-{3-[(2-methoxy-4-{2-oxa-6-azaspiro[3.3]heptane-6-sulfonyl}phenyl)amino]prop-1-yn-1-yl}-1-(2,2,2-trifluoroethyl)-1H-indol-4-yl)amino]-1λ^6-thiane-1,1-dione]
COc1cc(S(=O)(=O)N2CCN(C)CC2)ccc1NCC#Cc1cc2c(NC3CCS(=O)(=O)CC3)cccc2n1CC(F)(F)F [Compound 1048A, 4-({2-[3-({2-methoxy-4-[(4-methylpiperazin-1-yl)sulfonyl]phenyl}amino)prop-1-yn-1-yl]-1-(2,2,2-trifluoroethyl)-1H-indol-4-yl}amino)-1λ^6-thiane-1,1-dione]
CNC(=O)c1ccc(NCC#Cc2cc3c(NC4CCS(=O)(=O)CC4)cccc3n2CC(F)(F)F)c(OC)c1 [Compound 1049A, 4-[(3-{4-[(1,1-dioxo-1λ^6-thian-4-yl)amino]-1-(2,2,2-trifluoroethyl)-1H-indol-2-yl}prop-2-yn-1-yl)amino]-3-methoxy-N-methylbenzamide]
COCC(CNC(=O)c1ccc(NCC#Cc2cc3c(N[C@@H]4CCN(C)C[C@@H]4F)cccc3n2CC(F)(F)F)c(OC)c1)OC(=O)C(C)C (stereo partly drawn) [Compound 1055A, 1-[(4-{[3-(4-{[(3S,4R)-3-fluoro-1-methylpiperidin-4-yl]amino}-1-(2,2,2-trifluoroethyl)-1H-indol-2-yl)prop-2-yn-1-yl]amino}-3-methoxyphenyl)formamido]-3-methoxypropan-2-yl 2-methylpropanoate]
COc1cc(C(=O)NC(C)CO)ccc1NCC#Cc1cc2c(N[C@@H]3CCN(C)C[C@@H]3F)cccc2n1CC(F)(F)F (stereo partly drawn) [Compound 1056A, 4-{[3-(4-{[(3S,4R)-3-fluoro-1-methylpiperidin-4-yl]amino}-1-(2,2,2-trifluoroethyl)-1H-indol-2-yl)prop-2-yn-1-yl]amino}-N-(1-hydroxypropan-2-yl)-3-methoxybenzamide]
COc1cc(C(=O)NCC(C)O)ccc1NCC#Cc1cc2c(N[C@@H]3CCN(C)C[C@@H]3F)cccc2n1CC(F)(F)F (stereo partly drawn) [Compound 1057A, 4-{[3-(4-{[(3S,4R)-3-fluoro-1-methylpiperidin-4-yl]amino}-1-(2,2,2-trifluoroethyl)-1H-indol-2-yl)prop-2-yn-1-yl]amino}-N-(2-hydroxypropyl)-3-methoxybenzamide]
CNC(=O)c1ccc(NCC#Cc2cc3c(N[C@@H]4CCN(C)C[C@@H]4F)cccc3n2CC(F)(F)F)c(O)c1 [Compound 1058A, 4-{[3-(4-{[(3S,4R)-3-fluoro-1-methylpiperidin-4-yl]amino}-1-(2,2,2-trifluoroethyl)-1H-indol-2-yl)prop-2-yn-1-yl]amino}-3-hydroxy-N-methylbenzamide]
CCOc1cc(C(N)=O)ccc1NCC#Cc1cc2c(N[C@@H]3CCN(C)C[C@@H]3F)cccc2n1CC(F)(F)F [Compound 1059A, 3-ethoxy-4-{[3-(4-{[(3S,4R)-3-fluoro-1-methylpiperidin-4-yl]amino}-1-(2,2,2-trifluoroethyl)-1H-indol-2-yl)prop-2-yn-1-yl]amino}benzamide]
CCNC(=O)c1ccc(NCC#Cc2cc3c(N[C@@H]4CCN(C)C[C@@H]4F)cccc3n2CC(F)(F)F)c(O)c1 [Compound 1060A, N-ethyl-4-{[3-(4-{[(3S,4R)-3-fluoro-1-methylpiperidin-4-yl]amino}-1-(2,2,2-trifluoroethyl)-1H-indol-2-yl)prop-2-yn-1-yl]amino}-3-hydroxybenzamide]
COc1cc(C(=O)NCC(COC(=O)C(C)C)OC)ccc1NCC#Cc1cc2c(N[C@@H]3CCN(C)C[C@@H]3F)cccc2n1CC(F)(F)F (stereo partly drawn) [Compound 1061A, 3-[(4-{[3-(4-{[(3S,4R)-3-fluoro-1-methylpiperidin-4-yl]amino}-1-(2,2,2-trifluoroethyl)-1H-indol-2-yl)prop-2-yn-1-yl]amino}-3-methoxyphenyl)formamido]-2-methoxypropyl 2-methylpropanoate]
CCNC(=O)c1ccc(NCC#Cc2cc3c(N[C@@H]4CCNC[C@@H]4F)cccc3n2CC(F)(F)F)c(OC)c1 [Compound 1062A, N-ethyl-4-{[3-(4-{[(3S,4R)-3-fluoropiperidin-4-yl]amino}-1-(2,2,2-trifluoroethyl)-1H-indol-2-yl)prop-2-yn-1-yl]amino}-3-methoxybenzamide]
CCN1CC[C@@H](Nc2cccc3c2cc(C#CCNc2ccc(C(N)=O)cc2OC)n3CC(F)(F)F)[C@@H](F)C1 [Compound 1063A, 4-{[3-(4-{[(3S,4R)-1-ethyl-3-fluoropiperidin-4-yl]amino}-1-(2,2,2-trifluoroethyl)-1H-indol-2-yl)prop-2-yn-1-yl]amino}-3-methoxybenzamide]
COc1cc(C(=O)N(C)C)ncc1NCC#Cc1cc2c(N[C@@H]3CCN(C)C[C@@H]3F)cccc2n1CC(F)(F)F [Compound 1064A, 5-{[3-(4-{[(3S,4R)-3-fluoro-1-methylpiperidin-4-yl]amino}-1-(2,2,2-trifluoroethyl)-1H-indol-2-yl)prop-2-yn-1-yl]amino}-4-methoxy-N,N-dimethylpyridine-2-carboxamide]
CNC(=O)c1cc(OC)c(NCC#Cc2cc3c(N[C@@H]4CCN(C)C[C@@H]4F)cccc3n2CC(F)(F)F)cn1 [Compound 1065A, 5-{[3-(4-{[(3S,4R)-3-fluoro-1-methylpiperidin-4-yl]amino}-1-(2,2,2-trifluoroethyl)-1H-indol-2-yl)prop-2-yn-1-yl]amino}-4-methoxy-N-methylpyridine-2-carboxamide]
CN1CC[C@@H](Nc2cccc3c2cc(C#CCNC(=O)c2cnn(C(C)(C)C)c2)n3CC(F)(F)F)[C@@H](F)C1 [Compound 1066A, 1-tert-butyl-N-[3-(4-{[(3S,4R)-3-fluoro-1-methylpiperidin-4-yl]amino}-1-(2,2,2-trifluoroethyl)-1H-indol-2-yl)prop-2-yn-1-yl]-1H-pyrazole-4-carboxamide]
COc1cc(S(C)(=O)=O)ccc1NCC#Cc1cc2c(N[C@@H]3CCN(C(C)(C)C)C[C@@H]3F)cccc2n1CC(F)(F)F [Compound 1068A, N-((3S,4R)-1-(tert-butyl)-3-fluoropiperidin-4-yl)-2-(3-((2-methoxy-4-(methylsulfonyl)phenyl)amino)prop-1-yn-1-yl)-1-(2,2,2-trifluoroethyl)-1H-indol-4-amine]
COc1cc(S(C)(=O)=O)ccc1NCC#Cc1cc2c(N[C@H]3CCN(C(C)(C)C)C[C@H]3F)cccc2n1CC(F)(F)F [Compound 1069A, N-[(3R,4S)-1-tert-butyl-3-fluoropiperidin-4-yl]-2-{3-[(4-methanesulfonyl-2-methoxyphenyl)amino]prop-1-yn-1-yl}-1-(2,2,2-trifluoroethyl)-1H-indol-4-amine]
COc1cc(C(=O)O)ccc1NCC#Cc1cc2c(N[C@@H]3CCN(C(C)(C)C)C[C@@H]3F)cccc2n1CC(F)(F)F [Compound 1070A, 4-{[3-(4-{[(3S,4R)-1-tert-butyl-3-fluoropiperidin-4-yl]amino}-1-(2,2,2-trifluoroethyl)-1H-indol-2-yl)prop-2-yn-1-yl]amino}-3-methoxybenzoic acid]
COc1cc(C(=O)O)ccc1NCC#Cc1cc2c(N[C@H]3CCN(C(C)(C)C)C[C@H]3F)cccc2n1CC(F)(F)F [Compound 1071A, 4-{[3-(4-{[(3R,4S)-1-tert-butyl-3-fluoropiperidin-4-yl]amino}-1-(2,2,2-trifluoroethyl)-1H-indol-2-yl)prop-2-yn-1-yl]amino}-3-methoxybenzoic acid]
CNC(=O)c1ccc(NCC#Cc2cc3c(N[C@@H]4CCN(C(C)(C)C)C[C@@H]4F)cccc3n2CC(F)(F)F)c(OC)c1 [Compound 1072A, 4-{[3-(4-{[(3S,4R)-1-tert-butyl-3-fluoropiperidin-4-yl]amino}-1-(2,2,2-trifluoroethyl)-1H-indol-2-yl)prop-2-yn-1-yl]amino}-3-methoxy-N-methylbenzamide]
